Measurements from US20260209206A1, “STAT6 DEGRADERS AND USES THEREOF” (Kymera Therapeutics, Inc., priority 2023, published 2026).

Legend:
[1] = molecular target: T1, STAT6 (Homo sapiens, UniProt P42226); experiment: STAT6 MSD degradation in A549 cells; format: cell-based; conditions: 24 h
T1 construct: endogenous in cells; host or cells: A549 (STAT6-HiBiT), endogenous locus tagged
T1 sequence (P42226 1-847): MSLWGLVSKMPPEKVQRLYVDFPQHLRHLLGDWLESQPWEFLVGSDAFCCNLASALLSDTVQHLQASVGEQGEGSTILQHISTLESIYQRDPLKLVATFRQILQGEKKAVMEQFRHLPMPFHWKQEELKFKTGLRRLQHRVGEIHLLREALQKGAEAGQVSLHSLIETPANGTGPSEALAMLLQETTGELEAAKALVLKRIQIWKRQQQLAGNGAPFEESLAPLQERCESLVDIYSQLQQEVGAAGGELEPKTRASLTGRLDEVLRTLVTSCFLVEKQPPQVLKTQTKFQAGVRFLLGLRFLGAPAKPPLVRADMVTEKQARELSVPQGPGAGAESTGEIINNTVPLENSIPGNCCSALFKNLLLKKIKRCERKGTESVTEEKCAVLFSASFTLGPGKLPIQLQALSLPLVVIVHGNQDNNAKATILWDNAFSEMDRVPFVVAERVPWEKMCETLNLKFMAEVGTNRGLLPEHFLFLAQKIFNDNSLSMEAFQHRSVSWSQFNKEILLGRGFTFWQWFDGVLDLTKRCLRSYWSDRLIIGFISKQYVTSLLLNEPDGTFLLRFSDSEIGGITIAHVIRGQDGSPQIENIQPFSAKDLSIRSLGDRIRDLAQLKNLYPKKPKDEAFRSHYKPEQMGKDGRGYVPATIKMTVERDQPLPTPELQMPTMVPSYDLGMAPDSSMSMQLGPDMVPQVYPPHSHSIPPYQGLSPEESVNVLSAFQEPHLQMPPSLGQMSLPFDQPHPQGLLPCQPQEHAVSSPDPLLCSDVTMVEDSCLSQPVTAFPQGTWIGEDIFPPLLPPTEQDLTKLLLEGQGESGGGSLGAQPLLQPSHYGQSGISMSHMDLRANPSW
Method: Degradation of STAT6 in cells was quantitatively measured using Meso Scale Discovery (MSD) technology. A549 cells were seeded in 96-well plates with a density of 1.5×10e4 to 5×10e5 cells per well in 100 μl fresh media. Compounds were then added to the assay plates with a final top concentration of up to 10 uM in a 1:3 dilution series with total of 9 doses. The assay plates were then incubated for 4 to 24 hours at 37° C. under 5% CO2. The assay plates were then centrifuged for 5 minutes and the cell pellets were treated with 100 μl/well RIPA lysis buffer (Boston Bioproducts, BP-115D) with protease and phosphatase inhibitors (Roche, 05892791001 and 04906837001). To prepare the MSD assay plates (MSD, L15XA), the plates were coated with the capture antibody (Abnova, H00006778) in PBS, at 40 μl/well. The plates were then incubated overnight at 4° C., washed 1 time with […] TBST buffer (Cell Signaling Technology, #9997S) and blocked with 150 μl/well blocking buffer (MSD, R93BA-4). Cell lysates were then added to MSD assay plates and the plates were incubated at room temperature for 1 hour. The plates were then washed 3 times with 150 μl/well TBST buffer and 25 μl/well primary detection antibody (Cell Signaling Technology, #5397S). The assay plates were then incubated at room temperature for 1 hour, washed 3 times with 150 μl/well TBST buffer, and 25 μl/well secondary detection antibody, SULFO-TAG anti-rabbit antibody (MSD, R32AB-1) were added. The assay plates were then incubated at room temperature for 1 hour, washed 3 times with 150 μl/well TBST buffer, and 150 μl/well MSD reading buffer (MSD, R92TC-2) were added. The plates were then analyzed by an MSD reader. The data was analyzed by GraphPad Prism and the dose dependent STAT6 degradation was fit using the four-parameter inhibitor vs. response nonlinear regression.
The letter codes for DC50 (nM) include: A (<1 nM); B (1-10 nM); C (>10-100 nM); D (>100-1000 nM); E (>1000 nM); and F (not tested). The letter codes for Dmax (%) include: A (>90%); B (>70-90%); C (>50-70%); D (<50%); and E (not tested).

[2] = molecular target: T2, biotinylated truncated STAT6 (123-632)-avi (Homo sapiens, UniProt P42226); experiment: STAT6 HTRF binding assay; conditions: 0.15 nM STAT6 (123-632)-avi, 20 nM fluorescein-labeled probe, 30 minutes at room temperature
T2 construct: 0.15 nM biotinylated truncated STAT6 (123-632)-avi purified from E. coli; made in house; host or cells: E. coli
T2 sequence (P42226 123-632 limits assumed): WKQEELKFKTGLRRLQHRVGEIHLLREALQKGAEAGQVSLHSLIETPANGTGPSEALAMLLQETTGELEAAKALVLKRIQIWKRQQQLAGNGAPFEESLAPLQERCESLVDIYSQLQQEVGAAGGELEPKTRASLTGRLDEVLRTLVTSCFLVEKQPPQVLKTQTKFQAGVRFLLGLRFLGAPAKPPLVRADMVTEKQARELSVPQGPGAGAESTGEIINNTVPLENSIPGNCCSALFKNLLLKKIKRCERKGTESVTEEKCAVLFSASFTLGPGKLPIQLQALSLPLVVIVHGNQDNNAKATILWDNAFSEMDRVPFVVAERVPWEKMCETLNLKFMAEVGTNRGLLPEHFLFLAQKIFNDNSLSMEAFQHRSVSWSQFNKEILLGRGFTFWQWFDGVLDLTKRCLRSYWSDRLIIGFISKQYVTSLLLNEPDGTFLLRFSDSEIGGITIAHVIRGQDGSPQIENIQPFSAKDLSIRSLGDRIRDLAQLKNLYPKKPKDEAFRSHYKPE
Method: HTRF binding assays were perforned using 0.15 nM biotinylated truncated STAT6 (123-632)-avi purified from E. coli, 1× Streptavidin-terbium (CisBio) prepared by mixing SA-Tb in PPI detection buffer (CisBio), 20 nM proprietary fluorescein-labeled probe, and test compounds in assay buffer consisting of 50 mM HEPES-Na pH 7.5, 100 mM NaCl, 1 mM EDTA, 2 mM DTT, 0.1% Tween-20 with a final volume of 20 uL. Compound stocks were dissolved at 10 mM in 100% DMSO and 11 point titration with 3 fold serial dilution was performed in white, opaque 384 well microplates. Reaction plates were incubated at room temperature for 30 minutes. Plates were centrifuged at low rpm for 5 mins, and the ratio of fluorescence intensities were measured at emission wavelengths for fluorescein acceptor (520 nm) and terbium donor (495 nm) on Envision Plate reader. % Inhibition was calculated from the 520/495 ratio generated by using proprietary positive control compound for 100% inhibition and DMSO only reactions for 0% inhibition. Data was processed and dose response curves were generated using GraphPad Prism to determine the concentration required for inhibiting 50% of the HTRF signal (IC50).
The letter codes for IC50 (μM) include: A (<0.1 μM); B (0.1-1 μM); C (>1-10 μM); D (>10-100 μM); E (>100 μM); and F (not tested).

[3] = molecular target: T1, STAT6; experiment: STAT6 HiBiT degradation in A549 (STAT6-HiBiT) cells; format: cell-based; conditions: 24 h
Method: Degradation of STAT6 in endogenously tagged STAT6-HiBiT A549 cells was quantitatively measured using the Nano-Glo HiBiT Lytic Detection System (Promega, 3040). A549 (STAT6-HiBiT) cells were seeded in 384-well plates with a density of 1.25k cells per well in 20 μl fresh media. Compounds were then added to the assay plates using the Apricot S3 with a final top concentration of up to 10 uM in a 4-fold dilution series with total of 10 doses. The assay plates were then incubated for 24 hours at 37° C. under 5% CO2. At the assay endpoint, 20 μL of Nano-Glo HiBiT Lytic Reagent was added to each well and agitated on a plate shaker at 300 rpm for 10 minutes at room temperature. Luminescence was read on PHERAStar FSX Instrument (Is integration time). The data was analyzed by GraphPad Prism and the dose dependent STAT6 degradation was fit using the four-parameter inhibitor vs. response nonlinear regression.
The letter codes for DC50 (nM) include: A (<1 nM): B (1-10 nM); C (>10-100 nM); D (>100-1000 nM); E (>1000 nM); and F (not tested). The letter codes for Dmax (%) include: A (>90%); B (>70-90%); C (>50-70%); D (<50%): and E (not tested).

CN(C)C(=O)c1cc2ccc(C3=CCCN(C(=O)C4Cc5c(cccc5OCCOCCOCCOCCOCCc5cccc6c5n(C)c(=O)n6C5CCC(=O)NC5=O)CN4C=O)C3)cc2[nH]1 (stereo not drawn) [I-61]
DC50 [1]: > 1000 nM | Dmax [1]: < 50%

CN(C)C(=O)c1cc2ccc(C3=CCCN(C(=O)C4Cc5c(cccc5OCCOCCOCCOCCc5cccc6c5n(C)c(=O)n6C5CCC(=O)NC5=O)CN4C=O)C3)cc2[nH]1 (stereo not drawn) [I-98]
IC50 [2]: 10000 to 100000 nM | DC50 [1]: > 1000 nM | Dmax [1]: < 50%

CN(C)C(=O)c1cc2ccc(C3=CCCN(C(=O)C4Cc5c(cccc5OCCOCCOCCOCCOCCc5ccc6c(c5)n(C)c(=O)n6C5CCC(=O)NC5=O)CN4C=O)C3)cc2[nH]1 (stereo not drawn) [I-105]
DC50 [1]: > 1000 nM | Dmax [1]: < 50%

COc1cc(N2CCN(CCc3cccc4c3n(C)c(=O)n4C3CCC(=O)NC3=O)CC2)ccc1-c1cc(C2=CCCN(C(=O)CCn3ccnn3)C2)c(F)c2cnccc12 (stereo not drawn) [I-1270]
DC50 [3]: > 1000 nM | Dmax [3]: < 50% | IC50 [2]: 1000 to 10000 nM

COc1cc(N2CCN(CCc3cccc4c3n(C)c(=O)n4C3CCC(=O)NC3=O)CC2)ccc1-c1cc(C2=CCCN(C(=O)CCn3ccnn3)C2)c(F)c2ccncc12 (stereo not drawn) [I-1271]
DC50 [3]: > 1000 nM | Dmax [3]: < 50% | IC50 [2]: 1000 to 10000 nM

COc1cc(N2CCN(CCc3cccc4c3n(C)c(=O)n4C3CCC(=O)NC3=O)CC2)ccc1-c1cc(Nc2ccccn2)c(F)c(C2=CCCN(C(=O)CCn3ccnn3)C2)c1 (stereo not drawn) [I-1272]
DC50 [3]: < 1 nM | Dmax [3]: > 90% | IC50 [2]: 100 to 1000 nM

COc1cc(N2CCN(CCc3cccc4c3n(C)c(=O)n4C3CCC(=O)NC3=O)CC2)ccc1-c1cc(C2=CCCN(C(=O)CCn3ccnn3)C2)ccc1C(=O)N(C)C (stereo not drawn) [I-1282]
DC50 [3]: > 1000 nM | Dmax [3]: < 50% | IC50 [2]: 10000 to 100000 nM

COc1cc(N2CCN(CCc3cccc4c3n(C)c(=O)n4C3CCC(=O)NC3=O)CC2)ccc1-c1cc(C2CCCCN(C(=O)CCn3ccnn3)C2)c(F)c2[nH]c(C(=O)N(C)C)cc12 (stereo not drawn) [I-1292]
DC50 [3]: < 1 nM | Dmax [3]: > 90%

COc1cc(N2CCN(CCc3cccc4c3n(C)c(=O)n4C3CCC(=O)NC3=O)CC2)ccc1-c1cc(C2=CCCN(C(=O)CCn3ccnn3)C2)cc2ccc(C(=O)N(C)C)cc12 (stereo not drawn) [I-1293]
DC50 [3]: < 1 nM | Dmax [3]: > 90% | IC50 [2]: < 100 nM

COc1cc(N2CCN(CCc3cccc4c3n(C)c(=O)n4C3CCC(=O)NC3=O)CC2)ccc1-c1cc(-c2cccc(C(=O)N(C)C)c2)c(F)c2[nH]c(C(=O)N(C)C)cc12 (stereo not drawn) [I-1302]
DC50 [3]: 1 to 10 nM | Dmax [3]: 70 to 90% | IC50 [2]: 1000 to 10000 nM

COc1cc(N2CCN(CCc3cccc4c3n(C)c(=O)n4C3CCC(=O)NC3=O)CC2)ccc1-c1cc(C2=CCCN(C(=O)CCn3ccnn3)C2)ccc1-n1ccccc1=O (stereo not drawn) [I-1309]
DC50 [3]: > 1000 nM | Dmax [3]: < 50%

COc1cc(N2CCN(CCc3cccc4c3n(C)c(=O)n4C3CCC(=O)NC3=O)CC2)ccc1-c1cc(C(=O)N(C)C)ccc1C1=CCCN(C(=O)CCn2ccnn2)C1 (stereo not drawn) [I-1323]
DC50 [3]: 100 to 1000 nM | Dmax [3]: 70 to 90% | IC50 [2]: 100 to 1000 nM

COc1cc(N2CCN(CCc3cccc4c3n(C)c(=O)n4C3CCC(=O)NC3=O)CC2)ccc1-c1cc(NC(=O)CCn2ccnn2)ccc1-c1ncc(C(=O)N(C)C)[nH]1 (stereo not drawn) [I-1324]
DC50 [3]: > 1000 nM | Dmax [3]: < 50% | IC50 [2]: 10000 to 100000 nM

COc1cc(N2CCN(CCc3cccc4c3n(C)c(=O)n4C3CCC(=O)NC3=O)CC2)ccc1-c1cc(C2=CCCN(C(=O)CCn3ccnn3)C2)cc2c1CN(C(=O)N(C)C)C2 (stereo not drawn) [I-1334]
DC50 [3]: 10 to 100 nM | Dmax [3]: 70 to 90% | IC50 [2]: 1000 to 10000 nM

COc1cc(N2CCN(CCc3cccc4c3n(C)c(=O)n4C3CCC(=O)NC3=O)CC2)ccc1-c1cc(C2=CCCN(C(=O)CCn3ccnn3)C2)cnc1CNC(=O)N(C)C (stereo not drawn) [I-1336]
DC50 [3]: > 1000 nM | Dmax [3]: < 50% | IC50 [2]: 1000 to 10000 nM

COc1cc(N2CCN(CCc3cccc4c3n(C)c(=O)n4C3CCC(=O)NC3=O)CC2)ccc1-c1cc(C2=CCCN(C(=O)CCn3ccnn3)C2)cc2cc(C(=O)N(C)C)cnc12 (stereo not drawn) [I-1338]
DC50 [3]: > 1000 nM | Dmax [3]: < 50% | IC50 [2]: 10000 to 100000 nM

COc1cc(N2CCN(CCc3cccc4c3n(C)c(=O)n4C3CCC(=O)NC3=O)CC2)ccc1-c1cc(C2=CCCN(C(=O)CCn3ccnn3)C2)cc2ccncc12 (stereo not drawn) [I-1401]
IC50 [2]: 10000 to 100000 nM
